Results published in patent EP0237138A1, “Heterocyclic compounds, their preparation and, pharmaceutical compositions containing them” (YAMANOUCHI PHARMACEUTICAL CO. LTD., priority 1986, dated 1987).

Tests used:
[1] = molecular target: T1, human placenta aldose reductase (Homo sapiens, UniProt P15121); test: Aldose reductase-inhibitory activity (rate of disappearance of NADPH, glyceraldehyde substrate); type: biochemical; conditions: for inhibition at 1 µM: 10^-6(M); for inhibition at 0.1 µM: 10^-7(M)
T1 construct: a human placenta aldose reductase was purified to a single protein; from tissue; host or cells: human placenta
Method: The compound of the present invention, aldose reductase and nicotinamide adenine dinucleotide phosphate (NADPH) are dissolved in a buffer of pH 6.2 and incubated for 10 minutes at 25°C; glyceraldehyde is added thereto to start the reaction, and the rate of disappearance of NADPH is defined to be the enzyme activity of the aldose reductase.

[2] = system: Platelet aggregation in PRP; test: Platelet aggregation-inhibitory activity (arachidonate-induced aggregation in platelet-rich plasma, Born's method); conditions: aggregation induced by arachidonate

inhibition at 1 µM [1]	SMILES	inhibition at 0.1 µM [1]	Platelet Aggregation Inhibition ([2]; 200 (μM))	Platelet Aggregation Inhibition ([2]; 400 (μM))
89%	COc1cccc2c1CCCC2=C1SC(=S)N(CC(=O)O)C1=O [Example 11, 5-(5-methoxy-1,2,3,4-tetrahydro-1-naphthylidene)-4-oxo-2-thioxo-3-thiazolidine-acetic acid]	40%		
65%	O=C1NC(=S)SC1=C1CCCS(=O)(=O)c2ccccc21 [Example 49, 2,3,4,5-tetrahydro-5-(4-oxo-2-thioxo-5-thiazolidinylidene)-1-benzothiepine 1,1-dioxide]	23%		
72%	O=C1NC(=S)SC1=C1C(=O)Nc2ccc(Cl)cc21 [Example 66, 5-chloro-3-(4-oxo-2-thioxo-5-thiazolidinylidene)-2-indolinone]			
64%	O=C1NC(=S)SC1=C1C(=O)Nc2ccc(Br)cc21 [Example 67, 5-bromo-3-(4-oxo-2-thioxo-5-thiazolidinylidene)-2-indolinone]			
87%	O=C1NC(=O)/C(=C2\CCS(=O)(=O)c3ccccc32)S1 [Example 99B, (Z)-4-(2,4-dioxo-5-thiazolidinylidene)thiochroman 1,1-dioxide]	42%		
83%	O=C1NC(=S)SC1=C1CCSc2ccccc21 [Example 105, 4-oxo-5-(4-thiochromanylidene)-2-thioxo-thiazolidine]	29%		
56%	O=C1NC(=S)SC1=C1C(=O)Nc2ccccc21 [Example 146, 3-(4-oxo-2-thioxo-3-thiazolidinylidene)-2-indolinone]			

SMILES	inhibition at 1 µM [1]	inhibition at 0.1 µM [1]	Platelet Aggregation Inhibition ([2]; 200 (μM))	Platelet Aggregation Inhibition ([2]; 400 (μM))
COc1ccc2c(c1)CCCC2=C1SC(=S)N(CC(=O)O)C1=O [Example 7, 5-(6-methoxy-1,2,3,4-tetrahydro-1-natphylidene)-4-oxo-2-thioxo-3-thiazolidine-acetic acid]	93%	65%	100%	
O=C(O)c1ccc(N2C(=O)C(=C3CCS(=O)(=O)c4ccccc43)SC2=S)cc1 [Example 54, 4-[3-(p-carboxyphenyl)-4-oxo-2-thioxo-5-thiazolidinylidene]thiochroman 1,1-dioxide]	30%	15%	65%	
N=C1NC(=O)C(=C2CCS(=O)(=O)c3ccccc32)S1 [Example 95, 4-(2-imino-4-oxo-5-thiazolidinylidene)thiochroman 1,1-dioxide]	65%	19%		43%
O=C1NC(=S)SC1=C1C=CS(=O)(=O)c2ccccc21 [Example 119]	53%	37%		84%
O=C1NC(=O)[C@@]2(CCOc3ccc(F)cc32)N1 [Sorbinil, reference compound]	53.6%	15%		
